GI50 and TGI data for eleven molecules are collected here from PubChem BioAssay (NCI).

Test systems include OVCAR-4 ovarian; MCF7 breast; SNB-75 CNS; K-562 leukemia; CAKI-1 renal; ACHN renal; SF-539 CNS; NCI-H226 lung.
What all share (assay): NCI-60 cell line screen, 48 h

Structures are written as SMILES.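 Protocol summary: plate cells (96-well), add compound at 5 concentrations, incubate 48 h, interpolate endpoints linearly. GI50 = concentration required for 50% inhibition of growth. TGI: concentration producing complete growth inhibition.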 A value given as a limit tells only on which side of the number the result lay.

As to `CCOC1OC(=O)[C@H]2[C@@H]1[C@@H]1CC[C@H]2O1` (stereo partly drawn), the GI50 in the experiment with OVCAR-4 ovarian, in the experiment with MCF7 breast, in the experiment with K-562 leukemia, in the experiment on CAKI-1 renal, in the experiment with ACHN renal and in the experiment with SF-539 CNS was over 100 µM in each case. The GI50 in the experiment on NCI-H226 lung is over 100 µM. Further, the TGI with OVCAR-4 ovarian, with MCF7 breast, with SNB-75 CNS, in the experiment on K-562 leukemia, in the experiment with CAKI-1 renal and in the experiment on ACHN renal was over 100 µM throughout. Moreover, the TGI in the experiment on SF-539 CNS and with NCI-H226 lung was over 100 µM throughout.

Take `CC1=C(C(=O)Nc2ccc(F)c(Cl)c2)C(c2ccccc2O)NC(=O)N1` (stereo not drawn): the GI50 was 12.2 µM in the experiment with OVCAR-4 ovarian; 70.5 µM in the experiment on MCF7 breast; 40 µM with SNB-75 CNS; 58.1 µM with K-562 leukemia; over 100 µM in the experiment with CAKI-1 renal; over 100 µM with ACHN renal. The GI50 with SF-539 CNS and in the experiment on NCI-H226 lung was over 100 µM throughout. In addition, the TGI was 68.6 µM in the experiment with OVCAR-4 ovarian; over 100 µM in the experiment with MCF7 breast; over 100 µM with SNB-75 CNS; over 100 µM in the experiment on K-562 leukemia; over 100 µM in the experiment with CAKI-1 renal; over 100 µM with ACHN renal. The TGI with SF-539 CNS and in the experiment with NCI-H226 lung was over 100 µM in each case.

Consider `O=C1/C(=C/c2cccc(Br)c2)COc2ccc(O)c(O)c21`, for which the GI50 with OVCAR-4 ovarian was 1.51 µM; in the experiment on MCF7 breast it was 0.649 µM; in the experiment with SNB-75 CNS it was 0.933 µM; in the experiment with K-562 leukemia it was 0.387 µM; with CAKI-1 renal, 1.21 µM; in the experiment with ACHN renal, 1.24 µM. The GI50 in the experiment with SF-539 CNS was 1.58 µM; in the experiment on NCI-H226 lung it was 2.4 µM. In addition, the TGI stood at 2.85 µM in the experiment on OVCAR-4 ovarian; 2.56 µM in the experiment with MCF7 breast; 3.83 µM in the experiment with SNB-75 CNS; 20.7 µM with K-562 leukemia; 2.47 µM in the experiment on CAKI-1 renal; 2.5 µM in the experiment on ACHN renal. The TGI in the experiment with SF-539 CNS came to 3.45 µM; in the experiment with NCI-H226 lung, 6.81 µM.

Turning to `NS(=O)(=O)c1cccc(-c2ccc3c(NC(=O)C4CC4)n[nH]c3c2)c1`, the GI50 with OVCAR-4 ovarian was 16.7 µM; in the experiment with MCF7 breast it was over 13.3 µM; with SNB-75 CNS, over 13.8 µM; in the experiment on K-562 leukemia, 8.38 µM; in the experiment on CAKI-1 renal, over 25 µM; in the experiment with ACHN renal, over 25 µM. The GI50 with SF-539 CNS was 14.3 µM; with NCI-H226 lung, over 15.1 µM. Also, the TGI with OVCAR-4 ovarian is over 25 µM; in the experiment on MCF7 breast it was over 24.1 µM; in the experiment with SNB-75 CNS it was over 25 µM; with K-562 leukemia it was over 25 µM; in the experiment on CAKI-1 renal, over 25 µM; with ACHN renal, over 25 µM. Moreover, the TGI in the experiment with SF-539 CNS and in the experiment with NCI-H226 lung was over 25 µM each time.

`CCN(CC)CCC(CNc1c(C)cnc2cc(Cl)ccc12)c1ccc(Cl)cc1` (stereo not drawn): the GI50 was 4.17 µM with OVCAR-4 ovarian; 3.27 µM in the experiment with MCF7 breast; 5.67 µM with SNB-75 CNS; 3.51 µM in the experiment with CAKI-1 renal; 6.47 µM in the experiment on ACHN renal; 1.63 µM in the experiment with SF-539 CNS. For the same molecule, the GI50 in the experiment on NCI-H226 lung was 16 µM. The TGI in the experiment on OVCAR-4 ovarian stood at 21.1 µM; in the experiment with MCF7 breast, 16.3 µM; in the experiment with SNB-75 CNS, 21 µM; in the experiment with CAKI-1 renal it was 16.8 µM; in the experiment with ACHN renal, 20.1 µM; with SF-539 CNS, 3.31 µM. Besides, the TGI in the experiment on NCI-H226 lung worked out at 31.5 µM.

In the case of `COc1ccc2c(c1)C(=O)c1c-2n(CCCN)c(=O)c2cc([N+](=O)[O-])ccc12`, the GI50 with MCF7 breast, in the experiment on K-562 leukemia, in the experiment on CAKI-1 renal, in the experiment with SF-539 CNS and with NCI-H226 lung was under 0.01 µM in each case. For the same molecule, the TGI is under 0.01 µM in the experiment on MCF7 breast; 1.31 µM in the experiment on K-562 leukemia; under 0.01 µM with CAKI-1 renal; under 0.01 µM in the experiment with SF-539 CNS; under 0.01 µM in the experiment on NCI-H226 lung.

Turning to `COc1ccc(-c2ccc(/C=N/n3c(COc4ccccc4Cl)n[nH]c3=S)o2)c([N+](=O)[O-])c1`, the GI50 is 45.4 µM with OVCAR-4 ovarian; 18.7 µM in the experiment on MCF7 breast; over 100 µM in the experiment on SNB-75 CNS; 34.1 µM with K-562 leukemia; 24.6 µM in the experiment with CAKI-1 renal; 25.6 µM with ACHN renal. Besides, the GI50 in the experiment with NCI-H226 lung is 20.1 µM. Besides, the TGI is over 100 µM in the experiment with OVCAR-4 ovarian; 40.5 µM with MCF7 breast; over 100 µM in the experiment with SNB-75 CNS; over 100 µM with K-562 leukemia; 59.3 µM in the experiment with CAKI-1 renal; 69.5 µM in the experiment on ACHN renal. In the experiment with NCI-H226 lung, this molecule yielded a TGI of 50.9 µM.

For `N/C(=N\c1nc2ccccc2s1)NC(=NC1CCCCC1)NC1CCCCC1`, the GI50 was 1.63 µM in the experiment with OVCAR-4 ovarian; 1.46 µM in the experiment on MCF7 breast; 1.33 µM with SNB-75 CNS; 1.53 µM in the experiment on CAKI-1 renal; 1.6 µM in the experiment on ACHN renal; 1.66 µM in the experiment on SF-539 CNS. The GI50 in the experiment on NCI-H226 lung was 1.67 µM. In addition, the TGI in the experiment on OVCAR-4 ovarian is 3.29 µM; with MCF7 breast, 2.83 µM; in the experiment with SNB-75 CNS it was 2.62 µM; with CAKI-1 renal, 2.89 µM; in the experiment on ACHN renal, 2.96 µM; in the experiment with SF-539 CNS, 3.12 µM. This molecule also gave a TGI with NCI-H226 lung of 3.23 µM.

For `CN1CCN(c2cc3nc4ccccc4n(-c4ccc(Cl)cc4)c-3cc2=N)CC1`, the GI50 in the experiment on MCF7 breast is 35.6 µM; in the experiment with K-562 leukemia it was 0.356 µM; with CAKI-1 renal, 24.6 µM; with ACHN renal, 23.4 µM; in the experiment with SF-539 CNS it was 26.6 µM; in the experiment with NCI-H226 lung, 60.7 µM. Moreover, the TGI in the experiment with MCF7 breast was over 100 µM; with K-562 leukemia, 23.5 µM; in the experiment with CAKI-1 renal, 82 µM; in the experiment with ACHN renal, over 100 µM; with SF-539 CNS it was 73.7 µM; with NCI-H226 lung, over 100 µM.

Consider `Clc1ccccc1NN(Cc1ccncc1)c1ccccc1Cl`, for which the TGI with OVCAR-4 ovarian amounted to 25.2 µM; in the experiment on MCF7 breast, 53.5 µM; with SNB-75 CNS, 32.1 µM; in the experiment with K-562 leukemia, 30.2 µM; with ACHN renal, 35.6 µM; in the experiment on SF-539 CNS it was 36 µM. Further, the TGI in the experiment on NCI-H226 lung is 39.3 µM.

For `CC(=O)OC(C)C(OC(C)=O)C(OC(C)=O)C(/C=C/C1CC=CC(=O)O1)OC(C)=O` (stereo not drawn), the GI50 with OVCAR-4 ovarian was 17.2 µM; in the experiment on MCF7 breast it was 33.6 µM; with SNB-75 CNS, 10.3 µM; in the experiment with CAKI-1 renal, 43.3 µM; with ACHN renal it was 33.7 µM; in the experiment with SF-539 CNS it was 21.5 µM. Moreover, the GI50 with NCI-H226 lung was 42.6 µM. Besides, the TGI in the experiment on OVCAR-4 ovarian was 56.1 µM; with MCF7 breast it was over 100 µM; with SNB-75 CNS it was 28.6 µM; with CAKI-1 renal, over 100 µM; with ACHN renal, over 100 µM; in the experiment with SF-539 CNS, 43.5 µM. In the experiment with NCI-H226 lung, this molecule came in with a TGI of over 100 µM.
